Like-named read-outs stand apart in the source and are kept apart here.
What was measured:
GLS1 = GLS1 (Homo sapiens (Human), UniProt O94925); experiment: GLS Enzyme Potency Assay (Glutamate Oxidase/AmplexRed coupled assay); format: biochemical; conditions: 6His tagged GLS protein (amino acids 63-669); geometric mean where repeated
Description: The following assays were used to measure the effects of the compounds of the present invention: a) GLS Enzyme Potency Assay; b) GLS Cell Potency Assay; c) GLS Cell Proliferation Assay; and d) Mouse Xenograft Model. During the description of the assays, generally: • i. The following abbreviations have been used: CO2=Carbon dioxide; DMEM=Dulbecco's Modified Eagle Medium; DMSO=Dimethyl sulphoxide; EDTA=Ethylenediaminetetraacetic acid; EGTA=Ethylene glycol tetraacetic acid; FCS=Foetal calf serum; h=Hour(s); NBS=Non-binding surface; SDS=Sodium dodecyl sulphate; r.t.=room temperature; TRIS=Tris(Hydroxymethyl)aminomethane. • ii. IC50 values were calculated using a smart fitting model in Genedata. […] Assay a): GLS Enzyme Potency Assay
A Glutamate Oxidase/AmplexRed coupled assay was used to measure the ability of compounds to bind to and inhibit the activity of GLS1 in vitro. […] GLS1 was diluted to 2× working concentration and incubated at r.t. to allow the tetrameric/dimeric forms to reach steady state. Assay measurements were performed in buffer comprising 50 mM TRIS pH 7.8, 100 mM NaPO4, pH 7.8, 0.001% v/v Tween20. […] DMSO concentration was maintained at 2% by back filling with DMSO solution. […] 3 μL of 100 mM glutamine diluted in assay buffer was then added and the reaction incubated at r.t. for 60 minutes. […] An artefact version of the assay where the 6His tagged GLS protein and glutamine were replaced with assay buffer was also used to rule out non specific effects on the assay components.

cellular GLS activity = cellular GLS activity (Homo sapiens (Human), UniProt O94925); experiment: GLS Cell Potency Assay (PC3 coupled assay measuring cellular glutamate depletion); format: cell-based; conditions: PC3 cells, 6 h incubation, cellular glutamate depletion; geometric mean where repeated; read-out: Assay b) GLS Cell Potency Assay IC50
cellular GLS activity, sequence (O94925 55-669): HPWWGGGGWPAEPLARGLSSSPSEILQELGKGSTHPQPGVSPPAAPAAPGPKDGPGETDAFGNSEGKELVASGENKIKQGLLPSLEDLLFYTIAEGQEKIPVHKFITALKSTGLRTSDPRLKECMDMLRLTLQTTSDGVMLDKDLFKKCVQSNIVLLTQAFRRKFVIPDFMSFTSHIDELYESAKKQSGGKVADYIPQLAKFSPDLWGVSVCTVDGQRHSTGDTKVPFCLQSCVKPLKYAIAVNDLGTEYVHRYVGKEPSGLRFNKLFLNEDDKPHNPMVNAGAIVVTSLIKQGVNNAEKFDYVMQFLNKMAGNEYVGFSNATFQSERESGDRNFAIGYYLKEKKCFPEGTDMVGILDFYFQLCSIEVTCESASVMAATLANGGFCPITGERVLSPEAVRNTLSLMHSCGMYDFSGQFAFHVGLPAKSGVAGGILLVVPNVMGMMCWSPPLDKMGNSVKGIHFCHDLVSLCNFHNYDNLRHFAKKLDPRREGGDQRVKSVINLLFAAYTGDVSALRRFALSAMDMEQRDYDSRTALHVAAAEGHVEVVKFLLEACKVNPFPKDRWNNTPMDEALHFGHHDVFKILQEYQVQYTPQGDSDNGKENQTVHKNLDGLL
Description: (§1) The following assays were used to measure the effects of the compounds of the present invention: a) GLS Enzyme Potency Assay; b) GLS Cell Potency Assay; c) GLS Cell Proliferation Assay; and d) Mouse Xenograft Model. During the description of the assays, generally: • i. The following abbreviations have been used: CO2=Carbon dioxide; DMEM=Dulbecco's Modified Eagle Medium; DMSO=Dimethyl sulphoxide; EDTA=Ethylenediaminetetraacetic acid; EGTA=Ethylene glycol tetraacetic acid; FCS=Foetal calf serum; h=Hour(s); NBS=Non-binding surface; SDS=Sodium dodecyl sulphate; r.t.=room temperature; TRIS=Tris(Hydroxymethyl)aminomethane. • ii. […]
Compounds were assessed for their potential to inhibit cellular GLS activity by use of a PC3 coupled assay measuring cellular glutamate depletion. […] DMSO concentration was maintained at 0.3% by back filling with DMSO solution. PC3 cells were grown in phenol free DMEM, 10% dialyzed FCS, 2 mM glutamine and following dispersal by trypsinisation were plated at 5.6×10^3 cells per well in 40 μl of growth medium directly into the 384 well assay plates containing dispensed compound. After incubation for 6 h at 37° C., 5% CO2 growth media was aspirated and cells lysed in 15 μl of buffer containing 10 mM TRIS pH7.4, 100 mM NaCl, 1 mM EDTA, 1 mM EGTA, 1 mM NaF, 20 mM Na4P2O7, 2 mM Na3VO4, 1% Triton X-100, 10% glycerol, 0.1% SDS and 0.5% deoxycholate.

NCI-H1703 cells = experiment: GLS Cell Proliferation Assay (NCI-H1703); format: cell-based, human
Description: as §1
The ability of compounds to inhibit cell growth was measured using a 384 well plate NCI-H1703 cell proliferation assay. NCI-H1703 cells were grown in phenol red free RPMI1640, 10% FCS and 2 mM glutamine and seeded at a density of 750 cells per well in 40 μl of growth medium into clear-bottom 384 well assay plates (Corning product code 3712) and incubated for 24 h at 37° C., 5% CO2. […] DMSO concentration was maintained at 0.3% by back filling with DMSO solution. Plates were incubated for 5 days at 37° C., 5% CO2, Sytox Green and Saponin added to final concentration of 2 μM and 0.25% respectively and incubated for 6 h prior to analysis. Plates were read on an Acumen eX3 (TTP Labtech) using 488 nm excitation and FITC filter set (500-530 nm) for emission. IC50 values were calculated by curve fitting to max inhibition of day zero growth using GeneData software analysis.

[1] = Homo sapiens, 120 h; NCI-H1703 cells, 5 days incubation; geometric mean where repeated; read-out: Assay c) GLS Cell Proliferation Assay

GLS1, sequence (O94925 63-669): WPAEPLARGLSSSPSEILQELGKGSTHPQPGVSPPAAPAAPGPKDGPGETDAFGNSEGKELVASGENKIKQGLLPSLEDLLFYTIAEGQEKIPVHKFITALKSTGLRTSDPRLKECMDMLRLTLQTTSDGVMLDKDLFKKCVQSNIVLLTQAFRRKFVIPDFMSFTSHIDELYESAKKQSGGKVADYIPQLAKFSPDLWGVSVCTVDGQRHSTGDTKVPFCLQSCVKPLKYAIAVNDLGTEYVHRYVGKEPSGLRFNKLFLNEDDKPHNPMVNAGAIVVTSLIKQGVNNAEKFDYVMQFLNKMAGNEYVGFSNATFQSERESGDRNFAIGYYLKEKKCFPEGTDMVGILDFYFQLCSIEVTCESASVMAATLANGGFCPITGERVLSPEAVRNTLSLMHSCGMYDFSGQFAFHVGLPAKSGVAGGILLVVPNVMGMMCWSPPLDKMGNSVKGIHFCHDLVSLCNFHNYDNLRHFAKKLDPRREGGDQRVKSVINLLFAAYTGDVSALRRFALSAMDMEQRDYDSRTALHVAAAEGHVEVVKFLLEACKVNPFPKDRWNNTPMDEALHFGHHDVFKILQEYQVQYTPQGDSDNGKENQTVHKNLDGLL

Structure (SMILES) | IC50 (GLS1) | IC50 (cellular GLS activity) | IC50 (NCI-H1703 cells; [1]) | IC50 (NCI-H1703 cells; NCI-H1703 cells, 5 days incubation; geometric mean where repeated; read-out: Assay c) GLS Cell Proliferation Assay)
COc1cccc([C@H](OC)C(=O)Nc2nnc(N[C@@H]3CCN(c4cncnn4)C3)s2)c1 [21(a), (2S)-2-methoxy-2-(3-methoxyphenyl)-N-[5-[[(3R)-1-(1,2,4-triazin-6-yl)pyrrolidin-3-yl]amino]-1,3,4-thiadiazol-2-yl]acetamide] |  | 15.7 nM | 168 nM | 
CCO[C@@H](C(=O)Nc1nnc(N[C@@H]2CCN(c3cccnn3)C2)s1)c1ccc(F)cc1 [Example 13(b), (2R)-2-Ethoxy-2-(4-fluorophenyl)-N-[5-[[(3R)-1-pyridazin-3-ylpyrrolidin-3-yl]amino]-1,3,4-thiadiazol-2-yl]acetamide] | 170 nM | 14 nM | 560 nM | 
CO[C@@H](C(=O)Nc1nnc(N[C@@H]2CCN(c3nccnn3)C2)s1)c1cccc(OC(F)F)c1 [19(b), (2R)-2-[3-(difluoromethoxy)phenyl]-2-methoxy-N-[5-[[(3R)-1-(1,2,4-triazin-3-yl)pyrrolidin-3-yl]amino]-1,3,4-thiadiazol-2-yl]acetamide] | 519 nM | 37.4 nM |  | 
CO[C@H](C(=O)Nc1nnc(N[C@@H]2CCN(c3cccnn3)C2)s1)c1cccc(OC(F)(F)F)c1 [Example 9(a), (2S)-2-Methoxy-N-[5-[[(3R)-1-pyridazin-3-ylpyrrolidin-3-yl]amino]-1,3,4-thiadiazol-2-yl]-2-[3-(trifluoromethoxy)phenyl]acetamide] | 18.6 nM | 0.14 nM | 0.725 nM | 
COc1cccc([C@@H](OC)C(=O)Nc2nnc(N[C@@H]3CCN(c4nccnn4)C3)s2)c1 [Example 4(b), (2R)-2-Methoxy-2-(3-methoxyphenyl)-N-[5-[[(3R)-1-(1,2,4-triazin-3-yl)pyrrolidin-3-yl]amino]-1,3,4-thiadiazol-2-yl]acetamide] | 908 nM | 76 nM | 262 nM | 
CO[C@H](C(=O)Nc1nnc(N[C@@H]2CCN(c3nccnn3)C2)s1)c1cccc(OC(F)F)c1 [Example 6(a), (2S)-2-[3-(Difluoromethoxy)phenyl]-2-methoxy-N-[5-[[(3R)-1-(1,2,4-triazin-3-yl)pyrrolidin-3-yl]amino]-1,3,4-thiadiazol-2-yl]acetamide] | 85.1 nM | 2.57 nM | 16.6 nM | 
CCO[C@@H](C(=O)Nc1nnc(N[C@@H]2CCN(c3cccnn3)C2)s1)c1ccccc1 [Example 10(b), (2R)-2-Ethoxy-2-phenyl-N-[5-[[(3R)-1-pyridazin-3-ylpyrrolidin-3-yl]amino]-1,3,4-thiadiazol-2-yl]acetamide] | 110 nM | 13 nM | 234 nM | 
CO[C@H](C(=O)Nc1nnc(N[C@@H]2CCN(c3nccnn3)C2)s1)c1cccc(OC(F)F)c1 [19(a), (2S)-2-[3-(difluoromethoxy)phenyl]-2-methoxy-N-[5-[[(3R)-1-(1,2,4-triazin-3-yl)pyrrolidin-3-yl]amino]-1,3,4-thiadiazol-2-yl]acetamide] | 85.1 nM | 2.54 nM |  | 16.6 nM
COc1ccc([C@H](OC)C(=O)Nc2nnc(N[C@@H]3CCN(c4cccnn4)C3)s2)cc1 [Example 11, (2S)-2-Methoxy-2-(4-methoxyphenyl)-N-[5-[[(3R)-1-pyridazin-3-ylpyrrolidin-3-yl]amino]-1,3,4-thiadiazol-2-yl]acetamide] | 31 nM | 0.401 nM | 10.8 nM | 
COc1cccc([C@H](OC)C(=O)Nc2nnc(N[C@@H]3CCN(c4nccnn4)C3)s2)c1 [Example 4(a), (2S)-2-Methoxy-2-(3-methoxyphenyl)-N-[5-[[(3R)-1-(1,2,4-triazin-3-yl)pyrrolidin-3-yl]amino]-1,3,4-thiadiazol-2-yl]acetamide] | 35.5 nM | 1.51 nM | 5.01 nM | 
CCO[C@H](C(=O)Nc1nnc(N[C@@H]2CCN(c3cccnn3)C2)s1)c1ccccc1 [Example 10(a), (2S)-2-Ethoxy-2-phenyl-N-[5-[[(3R)-1-pyridazin-3-ylpyrrolidin-3-yl]amino]-1,3,4-thiadiazol-2-yl]acetamide] |  | 0.91 nM | 10.9 nM | 

Now from value to molecule, other results behind:

IC50 (GLS1) | IC50 (cellular GLS activity) | IC50 (NCI-H1703 cells; [1]) | Structure (SMILES) | IC50 (NCI-H1703 cells; NCI-H1703 cells, 5 days incubation; geometric mean where repeated; read-out: Assay c) GLS Cell Proliferation Assay)
155 nM | 18.7 nM | 404 nM | CCO[C@@H](C(=O)Nc1nnc(N[C@@H]2CCN(c3nccnn3)C2)s1)c1ccc(F)cc1 [35(b), (2R)-2-ethoxy-2-(4-fluorophenyl)-N-[5-[[(3R)-1-(1,2,4-triazin-3-yl)pyrrolidin-3-yl]amino]-1,3,4-thiadiazol-2-yl]acetamide] | 
1970 nM | 690 nM | 5540 nM | CCO[C@@H](C(=O)Nc1nnc(N[C@@H]2CCN(c3nccnn3)C2)s1)c1ccc(F)c(OC)c1 [33(b), (2R)-2-ethoxy-2-(4-fluoro-3-methoxy-phenyl)-N-[5-[[(3R)-1-(1,2,4-triazin-3-yl)pyrrolidin-3-yl]amino]-1,3,4-thiadiazol-2-yl]acetamide] | 
1950 nM | 337 nM | 7130 nM | CCO[C@H](C(=O)Nc1nnc(N[C@@H]2CCN(c3nccnn3)C2)s1)c1ccc(F)cc1 [35(a), (2S)-2-ethoxy-2-(4-fluorophenyl)-N-[5-[[(3R)-1-(1,2,4-triazin-3-yl)pyrrolidin-3-yl]amino]-1,3,4-thiadiazol-2-yl]acetamide] | 
86.2 nM | 33.3 nM | 624 nM | CCO[C@@H](C(=O)Nc1nnc(N[C@@H]2CCN(c3cccnn3)C2)s1)c1ccc(F)c(OC)c1 [31(b), (2R)-2-ethoxy-2-(4-fluoro-3-methoxy-phenyl)-N-[5-[[(3R)-1-pyridazin-3-ylpyrrolidin-3-yl]amino]-1,3,4-thiadiazol-2-yl]acetamide] | 
70.7 nM | 4.99 nM | 107 nM | COc1cc([C@@H](OC)C(=O)Nc2nnc(N[C@@H]3CCN(c4nccnn4)C3)s2)ccc1F [32(b), (2R)-2-(4-fluoro-3-methoxy-phenyl)-2-methoxy-N-[5-[[(3R)-1-(1,2,4-triazin-3-yl)pyrrolidin-3-yl]amino]-1,3,4-thiadiazol-2-yl]acetamide] | 
50.2 nM | 7.13 nM | 168 nM | CCO[C@H](C(=O)Nc1nnc(N[C@@H]2CCN(c3nccnn3)C2)s1)c1ccc(F)c(OC)c1 [33(a), (2S)-2-ethoxy-2-(4-fluoro-3-methoxy-phenyl)-N-[5-[[(3R)-1-(1,2,4-triazin-3-yl)pyrrolidin-3-yl]amino]-1,3,4-thiadiazol-2-yl]acetamide] | 
88.1 nM | 12 nM | 93.1 nM | CCO[C@H](C(=O)Nc1nnc(N[C@@H]2CCN(c3nccnn3)C2)s1)c1ccccc1 [34(a), (2S)-2-ethoxy-2-phenyl-N-[5-[[(3R)-1-(1,2,4-triazin-3-yl)pyrrolidin-3-yl]amino]-1,3,4-thiadiazol-2-yl]acetamide] | 
50.2 nM | 0.559 nM | 16.5 nM | CCO[C@H](C(=O)Nc1nnc(N[C@@H]2CCN(c3cccnn3)C2)s1)c1ccc(F)c(OC)c1 [31(a), (2S)-2-ethoxy-2-(4-fluoro-3-methoxy-phenyl)-N-[5-[[(3R)-1-pyridazin-3-ylpyrrolidin-3-yl]amino]-1,3,4-thiadiazol-2-yl]acetamide] | 
